Results on 4 compounds are retold here after patent publication US11026426B2, “Oxadiazole and phenol derivatives as antibacterial and/or herbicidal agents” (NORTHERN ILLINOIS RESEARCH FOUNDATION, priority 2017, dated 2021).

Broadly, the IC50 is the concentration needed to halve the response being measured.

Bounds are passed on as bounds.

Assay [1] has as its system Corynebacterium pseudodiphtheriae. The assay is described as follows: Antibacterial assay zone of inhibition Cp. It counts as cell-based.
For assay [2], the system named is Corynebacterium xerosis. The assay is described as follows: Antibacterial assay zone of inhibition Cx. It counts as cell-based.
The subject of assay [3] is Escherichia coli. The assay is described as follows: Antibacterial assay zone of inhibition Ec. It counts as cell-based.
The test system of assay [4] is Klebsiella pneumonia. The assay is described as follows: Antibacterial assay zone of inhibition Kp. Format: cell-based.
Assay [5] concerns Mycobacterium smegmatis. The assay is described as follows: Antibacterial assay zone of inhibition Ms. It counts as cell-based.
Assay [6] deals with Micrococcus luteus. The assay is described as follows: Antibacterial assay zone of inhibition Ml. It counts as cell-based.
The test system of assay [7] is Burkholderia thailandensis. Format: cell-based.
Assay [8] concerns Pseudomonas aeruginosa. The assay is described as follows: Antibacterial assay zone of inhibition Pa. It counts as cell-based.
The test system of assay [9] is Bacillus cereus. The assay is described as follows: Antibacterial assay zone of inhibition Bc. Format: cell-based.
Another assay deals with AtIspD (Arabidopsis thaliana, UniProt P69834). The assay is described as follows: University of Hamburg photometric enzymatic inhibition assay AtIspD. Format: biochemical. As to conditions: read-out: AtIspD IC50. Here is the method:
(§1) Compounds were subjected to a photometric enzymatic assay to test for inhibition of the plant enzymes Arabidopsis thaliana IspD and IspF, and IspE from Lycopersicon esculentum.
The procedure for AtIspD enzymatic inhibition assay, was performed by making an assay mixture of 100 mM Tris hydrochloride at pH 8.0 with 10 mM MgCl2, 1 mM dithiothreitol, 2.5 mM potassium phosphoenol pyruvate, 2.1 mM CTP, 2 mM ATP, 1 mM of (2R,3S)-2,3-dihydroxy-4-oxopentyl phosphate, 460 μM NADH, 1.1% (v/v) DMSO, 0.4 U IspE, 1 U lactate dehydrogenase, 1 U pyruvate kinase and 2.4 mU IspD in 180 μL of solution. Solutions were incubated at 27° C. and monitored photometrically. By preparing the assay mixture with a large excess of IspE compared to IspD, any inhibition of IspE by the test inhibitor would be insignificant compared to IspD and therefore the rate of the reaction is determined by IspD activity.

The target of another assay is LeIspE (Solanum lycopersicum, UniProt P93841). The assay is described as follows: University of Hamburg photometric enzymatic inhibition assay LeIspE. As to conditions: read-out: LeIspE IC50. It counts as biochemical, Lycopersicon esculentum. Here is the method:
as §1
The IspE assay conditions were very similar to the IspD assay in which the assay mixture was composed of 100 mM Tris hydrochloride at pH 8.0 with 10 mM MgCl2, 1 mM dithiothreitol, 2.5 mM potassium phosphoenol pyruvate, 2 mM ATP, 1 mM of 4-Diphosphocytidyl-2-C-methylerythritol, 460 μM NADH, 1.1% (v/v) DMSO, 2.4 mU IspE, 1 U lactate dehydrogenase, 1 U pyruvate kinase in 180 μL of solution. Solutions were incubated at 27° C. and monitored photometrically.

For assay [10], the system named is Corynebacterium pseudodiphtheriae. The assay is described as follows: Antibacterial preliminary screening CP.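 Note: 0 is no inhibition and 3 matches the commercial antibiotic control.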 Format: cell-based. The settings on record: score 0-3.
The test system of assay [11] is Burkholderia thailandensis. It counts as cell-based. The settings on record: preliminary screening, score 0-3.
Assay [12] concerns the target Lycopersicon esculentum IspE (LeIspE) (Solanum lycopersicum, UniProt P93841). The assay is described as follows: Thermal shift assay against LeIspE. It counts as binding.
In the next assay the test system is lettuce seeds. The assay is described as follows: Lettuce leaf assay. Format: in vivo. Details: key: 0 (no effect); 5(complete inhibition or bleaching). As to conditions: ranking 0-5. The text has this:
The lettuce leaf assay is a qualitative assay used to determine the relative effectiveness of the test compounds at inhibition of germination of seeds and root development as well as causing bleaching of leaves. Isoprenoid synthesis is vital in plants as isoprene-product gibberellins are a class of growth hormones in plants responsible for stimulating cell elongation and division. In addition, some carotenoids are involved in photosynthesis as components of the electron transport chain. MEP pathway inhibitors have the potential to prevent synthesis of these necessary cellular components and growth hormones resulting in inhibition of germination and root development as well as causing chlorosis, or bleaching in the leaves. The lettuce leaf assay, explores the effects of compounds as potential MEP pathway inhibitors by evaluating the effect on bleaching, root development, and germination of lettuce seeds, which all rely on isoprenoid biosynthesis. […] The assay is a qualitative assay and the effects are given rankings from 0 (no effect) to 5 (complete inhibition or bleaching). In this assay, compounds are dissolved in a volatile organic solvent and applied to filter paper in a petri dish. The solvent is allowed to evaporate and lettuce seeds are applied followed by the addition of 5 mL of water to obtain the necessary concentrations. Seeds are allowed to grow and they are observed on day 3 and day 4 for evaluation.

Assay [13] concerns Klebsiella pneumonia. The assay is described as follows: Antibacterial preliminary screening KP. Note: key: 0 represents no inhibition; 3 is comparable to commercial antibiotic control. Format: cell-based. The settings on record: score 0-3.
The next assay deals with AtIspF (Arabidopsis thaliana, UniProt Q9CAK8). The assay is described as follows: University of Hamburg photometric enzymatic inhibition assay AtIspF. As to conditions: read-out: AtIspF IC50. It counts as biochemical. Here is the method: as §1
Chain of AtIspF (Q9CAK8 53-231): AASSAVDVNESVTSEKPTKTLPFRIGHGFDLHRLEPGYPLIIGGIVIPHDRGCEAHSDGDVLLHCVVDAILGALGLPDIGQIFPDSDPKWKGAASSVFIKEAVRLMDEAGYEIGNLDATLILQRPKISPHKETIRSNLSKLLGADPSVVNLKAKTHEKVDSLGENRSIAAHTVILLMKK
The IspF assay mixture conditions were as follows: 100 mM Tris hydrochloride at pH 8.0 with 10 mM MgCl2, 1 mM dithiothreitol, 2.5 mM potassium phosphoenol pyruvate, 2 mM ATP, 1 mM of 4-diphosphocytidyl-2C methylerythritol 2-phosphate, 460 μM NADH, 1.1% (v/v) DMSO, 0.5 U CMP kinase, 2.4 mU IspF, 1 U lactate dehydrogenase, 1 U pyruvate kinase in 180 μL of solution. Solutions were incubated at 27° C. and monitored photometrically.

The subject of assay [14] is Bacillus cereus. The assay is described as follows: Antibacterial preliminary screening BC. Note: key: 0 represents no inhibition; 3 is comparable to commercial antibiotic control. As to conditions: score 0-3. It counts as cell-based.
In assay [15] the test system is Mycobacterium smegmatis. The assay is described as follows: Antibacterial preliminary screening MS. Note: key: 0 represents no inhibition; 3 is comparable to commercial antibiotic control. Format: cell-based. The settings on record: score 0-3.
The target of assay [16] is T1, Mycobacterium tuberculosis IspD (MtIspD) (Mycobacterium tuberculosis, UniProt P9WKG9).
T1 sequence (P9WKG9 1-231): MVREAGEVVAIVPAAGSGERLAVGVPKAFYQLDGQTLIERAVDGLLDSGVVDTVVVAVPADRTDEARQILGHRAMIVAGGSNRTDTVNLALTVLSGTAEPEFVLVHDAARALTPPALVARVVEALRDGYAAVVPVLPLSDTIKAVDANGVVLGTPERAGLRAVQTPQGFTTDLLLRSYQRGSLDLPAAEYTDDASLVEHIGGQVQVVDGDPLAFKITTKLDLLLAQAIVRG
The assay is described as follows: Thermal shift assay against MtIspD. Format: binding.

The subject of assay [17] is Escherichia coli. The assay is described as follows: Antibacterial preliminary screening EC. Note: key: 0 represents no inhibition; 3 is comparable to commercial antibiotic control. As to conditions: score 0-3. It counts as cell-based.
Assay [18] deals with Corynebacterium xerosis. The assay is described as follows: Antibacterial preliminary screening CX. Note: key: 0 represents no inhibition; 3 is comparable to commercial antibiotic control. The settings on record: score 0-3. It counts as cell-based.
The subject of assay [19] is Pseudomonas aeruginosa. The assay is described as follows: Antibacterial preliminary screening PA. Note: key: 0 represents no inhibition; 3 is comparable to commercial antibiotic control. It counts as cell-based. As to conditions: score 0-3.
Assay [20] deals with Micrococcus luteus. The assay is described as follows: Antibacterial preliminary screening ML. Note: key: 0 represents no inhibition; 3 is comparable to commercial antibiotic control. It counts as cell-based. The settings on record: score 0-3.

Chain of LeIspE (P93841 89-401): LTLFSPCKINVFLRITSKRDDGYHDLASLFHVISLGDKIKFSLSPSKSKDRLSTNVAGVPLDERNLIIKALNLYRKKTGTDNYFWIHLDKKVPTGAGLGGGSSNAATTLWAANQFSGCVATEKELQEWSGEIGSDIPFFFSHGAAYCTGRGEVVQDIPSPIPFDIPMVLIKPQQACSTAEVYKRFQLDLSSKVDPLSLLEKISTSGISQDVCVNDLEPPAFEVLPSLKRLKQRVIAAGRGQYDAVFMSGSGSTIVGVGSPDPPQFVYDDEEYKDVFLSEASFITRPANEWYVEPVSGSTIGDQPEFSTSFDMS
Chain of Lycopersicon esculentum IspE (LeIspE) (P93841 89-401): as above
Chain of AtIspD (P69834 62-302): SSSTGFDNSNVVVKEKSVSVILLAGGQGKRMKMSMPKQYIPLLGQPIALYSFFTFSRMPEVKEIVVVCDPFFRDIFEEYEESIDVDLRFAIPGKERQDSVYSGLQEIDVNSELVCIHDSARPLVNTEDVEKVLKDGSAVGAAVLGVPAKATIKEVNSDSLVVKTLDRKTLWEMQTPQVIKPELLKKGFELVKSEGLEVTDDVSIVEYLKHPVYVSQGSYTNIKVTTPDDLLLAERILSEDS

Consider `c1ccc(OCc2nnc(-c3cc4ccccc4[nH]3)o2)cc1` [HGN-811], for which the “Antibacterial Cp zone of inhibition” value in assay [1] (0.1 mM), in [1] (0.5 mM) and in assay [1] (1 mM) was 0 millimeters throughout. Besides, the “Antibacterial Cx zone of inhibition” value in the assay with Corynebacterium xerosis [2] (0.1 mM), with Corynebacterium xerosis [2] (0.5 mM) and in the assay on Corynebacterium xerosis [2] (1 mM) was 0 millimeters throughout. Also, the “Antibacterial Ec zone of inhibition” value with Escherichia coli [3] (0.1 mM), in the assay on Escherichia coli [3] (0.5 mM) and in the assay on Escherichia coli [3] (1 mM) was 0 millimeters throughout. In addition, the “Antibacterial Kp zone of inhibition” value with Klebsiella pneumonia [4] (0.1 mM), in the assay on Klebsiella pneumonia [4] (0.5 mM) and in the assay with Klebsiella pneumonia [4] (1 mM) was 0 millimeters each time. Besides, the “Antibacterial Ms zone of inhibition” value with Mycobacterium smegmatis [5] (0.1 mM), in the assay on Mycobacterium smegmatis [5] (0.5 mM) and in the assay on Mycobacterium smegmatis [5] (1 mM) was 0 millimeters in each case. Further, the “Antibacterial Ml zone of inhibition” value with Micrococcus luteus [6] (0.1 mM), with Micrococcus luteus [6] (0.5 mM) and in the assay with Micrococcus luteus [6] (1 mM) was 0 millimeters in each case. Moreover, the “Antibacterial Bt zone of inhibition” value in assay [7] was 0 8 12 millimeters. Further, the “Antibacterial Pa zone of inhibition” value with Pseudomonas aeruginosa [8] (0.1 mM), in the assay with Pseudomonas aeruginosa [8] (0.5 mM) and in the assay with Pseudomonas aeruginosa [8] (1 mM) was 0 millimeters in each case. Also, the “Antibacterial Bc zone of inhibition” value with Bacillus cereus [9] (0.1 mM) is 0 millimeters; in the assay on Bacillus cereus [9] (0.5 mM), 12.5 millimeters; in the assay on Bacillus cereus [9] (1 mM), 16 millimeters.
For the compound `COc1ccc(-c2nnc(-c3cc4ccccc4[nH]3)o2)cc1` [HGN-223, 2-(1H-indol-2-yl)-5-(4-methoxyphenyl)-1,3,4-oxadiazole], the concentration for half-maximal inhibition (IC50) on AtIspD amounted to 209 ± 29 µM. The IC50 at LeIspE came out at 126 ± 12 µM. The compound also yielded a CP score in [10] of 0. In assay [11], this compound yielded a BT score of 0. Also, in assay [12], the “LeIspE melting point change” value was −0.25 °C and the LeIspE melting temp amounted to 49.25 °C. For the same compound, in the assay on lettuce seeds (0.5 mM), the Bleaching is on record as 0, the Germination turned out to be 1 and the “Root Dev.” value is 0. In the assay with lettuce seeds (1.0 mM), the Bleaching is 0, the Germination is on record as 4 and the “Root Dev.” value is given as 0. The KP score in the assay with Klebsiella pneumonia [13] is reported as 0. For the same compound, on AtIspF, the IC50 is above 1000 µM. Further, in the assay on Bacillus cereus [14], the BC score is 0. The MS score in the assay on Mycobacterium smegmatis [15] is listed as 0. For the same compound, in assay [16], the “MtIspD melting point change” value turned out to be 0.0 °C and the MtIspD melting temp was 48.0 °C. This compound also came in with an EC score with Escherichia coli [17] of 0. Also, the CX score with Corynebacterium xerosis [18] was found to be 0. The compound further showed a PA score in the assay on Pseudomonas aeruginosa [19] of 0. This compound came in with an ML score in the assay with Micrococcus luteus [20] of 0.
For `c1ccc(-c2cccc(-c3nnc(-c4cc5ccccc5[nH]4)o3)c2)cc1` [HGN-287, 2-([1,1′-biphenyl]-3-yl)-5-(1H-indol-2-yl)-1,3,4-oxadiazole], the IC50 on AtIspD is 501 ± 82 µM. Moreover, the half-inhibitory concentration (IC50) on LeIspE was above 1000 µM. In [10], this compound yielded a CP score of 0. Besides, the BT score in assay [11] is recorded as 0. Further, in assay [12], the “LeIspE melting point change” value is −0.25 °C and the LeIspE melting temp was found to be 49.25 °C. For the same compound, in the assay with lettuce seeds (0.15 mM), the Bleaching amounted to 0, the Germination was determined as 0 and the “Root Dev.” value was 0. Besides, in the assay on lettuce seeds (0.3 mM), the Bleaching was determined as 0, the Germination turned out to be 0 and the “Root Dev.” value was found to be 0. For the same compound, the KP score in the assay with Klebsiella pneumonia [13] was found to be 0. For the same compound, at AtIspF, the 50% inhibitory concentration (IC50) was above 1000 µM. In addition, the BC score in the assay on Bacillus cereus [14] is recorded as 0. Moreover, the MS score with Mycobacterium smegmatis [15] is on record as 0. In assay [16], the “MtIspD melting point change” value stood at 0.5 °C and the MtIspD melting temp is 48.5 °C. Also, in the assay with Escherichia coli [17], the EC score is listed as 0. The same compound yielded a CX score in the assay with Corynebacterium xerosis [18] of 0. Moreover, in the assay with Pseudomonas aeruginosa [19], the PA score is reported as 0. This compound also displayed an ML score with Micrococcus luteus [20] of 0.
`c1ccc(-c2ccc(-c3nnc(-c4cc5ccccc5[nH]4)o3)cc2)cc1` [HGN-288, 2-([1,1′-biphenyl]-4-yl)-5-(1H-indol-2-yl)-1,3,4-oxadiazole]: the half-maximal inhibitory concentration (IC50) at AtIspD came out at 255 ± 35 µM. For the same compound, the IC50 on LeIspE is above 1000 µM. The compound also returned a CP score in assay [10] of 0. In addition, the BT score in [11] is given as 0. Also, in assay [12], the “LeIspE melting point change” value was −1.50 °C and the LeIspE melting temp came to 48.00 °C. Further, in the assay with lettuce seeds (0.1 mM), the Bleaching is listed as 0, the Germination was found to be 0 and the “Root Dev.” value is listed as 0. Besides, in the assay with lettuce seeds (0.2 mM), the Bleaching stood at 0, the Germination was 0 and the “Root Dev.” value was 0. The KP score in the assay with Klebsiella pneumonia [13] came to 0. The half-inhibitory concentration (IC50) at AtIspF was above 1000 µM. The same compound returned a BC score with Bacillus cereus [14] of 0. In addition, the MS score with Mycobacterium smegmatis [15] is 0. Besides, in [16], the “MtIspD melting point change” value worked out at 1.0 °C and the MtIspD melting temp worked out at 49.0 °C. This compound yielded an EC score in the assay with Escherichia coli [17] of 0. The CX score with Corynebacterium xerosis [18] amounted to 0. The PA score in the assay with Pseudomonas aeruginosa [19] came to 0. Further, the ML score in the assay on Micrococcus luteus [20] is 0.
